Columns and labels:
[1] = test system: detached leaf segments of Triticum aestivum cv. Hereward; assay: Senescence bioassay on wheat leaf segments (chlorophyll retention); details: chlorophyll retention at maximum effective concentration, 96 h dark
Method: Seeds of winter wheat, Triticum aestivum cv. Hereward, were washed under running water for 24 hours and then sown on vermiculite soaked with Knop's solution. They were placed in the growth chamber at 25° C. with a 16/8 h light period at 50 μmol·m^−2·s^−1. After 7 days, the first leaf was fully developed and the second leaf had started to grow. A tip section of the first leaf, approximately 35 mm long, was removed from 5 seedlings and trimmed slightly to a combined weight of 100 mg. The basal ends of the five leaf tips were placed in the wells of a microtiter polystyrene plate containing 150 μL, of the tested derivative solution each. The entire plate was inserted into a plastic box lined with paper tissues soaked in distilled water to prevent leaf sections from drying out. After 96 h incubation in the dark at 25° C., the leaves were removed and chlorophyll extracted by heating at 80° C. for 10 min in 5 mL of 80% ethanol (v/v). The sample volume was then restored to 5 mL by the addition of 80% ethanol (v/v). The absorbance of the extract was recorded at 665 nm. In addition, chlorophyll extracts from fresh leaves and leaf tips incubated in deionised water were measured. The results are means of five replicates and the entire test was repeated twice. […] The compounds to be tested were dissolved in dimethylsulfoxide (DMSO) and the solution brought up to 10^−3M with distilled water. This stock solution was further diluted with the respective media used for the biotest to a concentration ranging from 10^−8M to 10^−4M. […] The activity obtained for 10^−4 M of BAP was postulated as 100%.

[2] = test system: Normal human dermal fibroblasts (NHDF); assay: In vitro UVA photoprotection test (neutral red); format: cell-based; details: UVA 7.5 J/cm^2, 0.9; 1.8; 3.9 a 7.8 μmol/l, 60 minutes pre-incubation
From the text: Normal human dermal fibroblasts (NHDF) were used as an in vitro model. Cells were isolated from tissue specimens obtained from healthy patients undergoing plastic surgery at the Department of Plastic and Aesthetic Surgery (University Hospital Olomouc). The use of skin tissue was in accordance with the Ethics Committee of the University Hospital and Faculty of Medicine and Dentistry, Palacký University, Olomouc and all patients signed written informed consent. Fibroblasts were used between the 2nd and 4th passage. For all experiments the fibroblasts were seeded onto 96-well plates at a density of 0.8×10^5 cells/ml (0.2 ml per well) of cultivation medium (DMEM supplemented with foetal calf serum (10%, v/v), penicillin […] and streptomycin (100 U/ml)).
Test compounds included 6-(3-methoxybenzylamino)-9-β-D-arabinofuranosylpurine. […] Intensity of UVA or UVB radiation was evaluated before each irradiation by UVA- or UVB-meter. […] After 24 hours (37° C., 5% CO2) cell damage was evaluated by neutral red (NR) incorporation into viable cells. […] After 5 minutes of intensive shaking absorbance was measured at 540 nm. […] Photoprotective effect was evaluated by comparison of experimental data (absorbance) of test compounds with a positive control and a negative control (according to the following equation: […]

COc1cccc(CNc2ncnc3c2ncn3[C@@H]2O[C@H](CO)[C@@H](O)[C@@H]2O)c1 [6-(3-methoxybenzylamino)-9-β-D-arabinofuranosylpurine]
activity (%) [10^−4 mol · l^−1 BAP = 100%] [1]: 118 ± 2% | viability after UVA vs DMSO control (photoprotection) [2]: higher viability
